# The supplement of paper PMC10307832
# Experiments:
# Assay in all cases: relative viability (nuclei count vs DMSO), 5 days (fraction); higher = more cells survive
# Ponatinib = compound: Cc1ccc(C(=O)Nc2ccc(CN3CCN(C)CC3)c(C(F)(F)F)c2)cc1C#Cc1cnc2cccnn12 [Ponatinib]
# How it was run: (§1)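 Viability here means nuclei in treated wells divided by nuclei in vehicle wells, reported as the median across plates. Only plates with control CV below 25% and at least one doubling passed. Lung cancer cell lines in 1536-well plates were exposed to five √10-spaced library-drug doses for 5 days and counted from 4× Hoechst images in MetaXpress.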
# Pazopanib = compound: Cc1ccc(Nc2nccc(N(C)c3ccc4c(C)n(C)nc4c3)n2)cc1S(N)(=O)=O [Pazopanib]
# How it was run: as §1
# Ponatinib + Alpelisib = compound: Cc1ccc(C(=O)Nc2ccc(CN3CCN(C)CC3)c(C(F)(F)F)c2)cc1C#Cc1cnc2cccnn12 [Ponatinib] + Cc1nc(NC(=O)N2CCC[C@H]2C(N)=O)sc1-c1ccnc(C(C)(C)C(F)(F)F)c1 [Alpelisib] (partner 2 µM)
# How it was run: (§2)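 Cells from lung cancer lines were seeded into 1536-well plates and, one day later, dosed by pin tool. Treatments were either a single drug or a fixed dose of an anchor drug with five library-drug doses (not always all listed) in √10 steps. After 5 days, nuclei were stained in a one-step fixation (final 0.05% Triton X-100, 1% formaldehyde, 1 ug/ml Hoechst) and counted on 4× images, and relative viability is the treated-to-vehicle nuclei ratio, as the median of duplicate plates.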
# Pazopanib + Pemetrexed = compound: Cc1ccc(Nc2nccc(N(C)c3ccc4c(C)n(C)nc4c3)n2)cc1S(N)(=O)=O [Pazopanib] + Nc1nc2[nH]cc(CCc3ccc(C(=O)N[C@@H](CCC(=O)O)C(=O)O)cc3)c2c(=O)[nH]1 [Pemetrexed] (partner 0.2 µM)
# How it was run: as §2
Cell Line,relative viability (Ponatinib; 0.002 µM),relative viability (Ponatinib; 0.006325 µM),relative viability (Ponatinib; 0.06325 µM),relative viability (Ponatinib; 0.2 µM),relative viability (Pazopanib; 0.01 µM),relative viability (Pazopanib; 0.03162 µM),relative viability (Pazopanib; 0.1 µM),relative viability (Pazopanib; 0.3162 µM),relative viability (Pazopanib; 1 µM),relative viability (Ponatinib + Alpelisib; first compound 0.002 µM),relative viability (Ponatinib + Alpelisib; first compound 0.006325 µM),relative viability (Ponatinib + Alpelisib; first compound 0.06325 µM),relative viability (Ponatinib + Alpelisib; first compound 0.2 µM),relative viability (Pazopanib + Pemetrexed; first compound 0.01 µM),relative viability (Pazopanib + Pemetrexed; first compound 0.03162 µM),relative viability (Pazopanib + Pemetrexed; first compound 0.1 µM),relative viability (Pazopanib + Pemetrexed; first compound 0.3162 µM),relative viability (Pazopanib + Pemetrexed; first compound 1 µM)
NCI-H1651,0.982,1.02,1.08,0.929,0.917,1,1.01,0.956,1.01,0.867,1.06,1.07,0.991,0.6,0.603,0.574,0.542,0.583
NCI-H1666,0.919,0.977,1.11,1.04,0.989,1,1.01,0.976,1.07,0.864,1.04,1.05,1.07,0.932,0.834,0.92,0.72,0.847
NCI-H1734,0.938,0.974,1,0.871,0.776,1.03,1.11,1.13,1.12,0.594,0.721,0.741,0.614,0.435,0.396,0.468,0.436,0.432
NCI-H1755,1.02,0.964,0.99,0.892,0.892,0.967,0.947,0.978,1.02,0.905,0.96,0.957,0.854,0.438,0.427,0.458,0.456,0.42
NCI-H1792,0.887,0.836,1.12,0.838,,0.911,0.832,1.12,0.956,0.668,0.681,0.746,0.656,,0.943,0.742,0.781,0.79
NCI-H1793,0.959,0.914,0.89,0.715,,0.875,0.856,0.961,1.16,0.677,0.946,0.907,0.729,,0.864,0.949,0.76,1.09
NCI-H1915,0.906,1,0.986,0.971,0.915,1.02,0.995,0.961,0.894,0.976,1.03,1.06,0.961,0.509,0.442,0.472,0.467,0.474
NCI-H1944,0.828,1.01,0.957,1,0.739,0.965,1.06,0.981,1.01,0.824,0.943,1.1,0.954,0.562,0.635,0.67,0.724,0.603
NCI-H1975,0.831,0.918,0.948,0.844,0.889,0.895,0.993,0.944,1.03,0.618,0.773,0.92,0.675,0.294,0.296,0.285,0.299,0.258
NCI-H1993,1.02,1.03,1.2,1.05,,0.791,0.936,0.983,0.86,0.63,0.793,0.71,0.688,,0.588,0.639,0.549,0.554
NCI-H2009,0.95,0.944,1.07,1.03,0.989,1.04,0.937,1.02,0.891,1.14,1.13,1.18,1.07,1.06,1.06,0.977,0.971,0.925
NCI-H2023,0.821,0.95,1.1,0.846,0.856,1,0.989,0.974,1.22,0.642,0.639,0.666,0.61,0.18,0.206,0.271,0.22,0.216
NCI-H2085,1.01,0.997,1.19,1.06,0.973,1.04,0.966,1.01,1.02,0.881,1.01,1.07,0.959,0.816,1.09,0.804,0.949,1.03
NCI-H2087,0.877,0.782,0.928,0.974,1.02,1.06,1.07,1.09,0.908,0.812,0.84,0.932,0.879,0.61,0.65,0.637,0.59,0.657
NCI-H2126,0.959,1.04,1.14,1.04,0.91,0.903,1.02,0.991,0.996,0.779,0.769,0.851,0.852,0.662,0.703,0.68,0.693,0.721
NCI-H2170,0.927,0.969,1,0.917,0.828,1.02,0.948,0.899,0.995,0.804,0.843,0.892,0.811,0.258,0.307,0.264,0.277,0.258
NCI-H2228,0.828,0.991,1.07,0.895,0.964,1,1.03,0.973,1.04,0.677,0.788,1.13,0.75,0.366,0.337,0.296,0.348,0.333
NCI-H2347,0.977,1,1.19,0.977,0.932,1,0.98,1.05,1.04,1,1.1,1.18,1.02,0.444,0.421,0.429,0.426,0.386
NCI-H2405,0.935,1.06,1.02,0.847,0.895,0.998,1.01,1.04,1.1,0.86,0.922,0.98,0.666,0.97,1.11,1.17,1.14,1.41
NCI-H3122,0.979,0.997,1.02,1.02,1.04,0.997,1.01,1.06,1.05,0.883,0.86,0.863,0.909,0.207,0.188,0.188,0.191,0.212
PC-3 [JPC-3],0.932,1.05,1.15,1.03,1.13,1.05,1.09,1.02,1.01,1,1.09,1.02,1.09,,0.993,0.957,1.06,1.15
PC-14,0.887,0.984,1.16,0.993,1.06,1.07,1.06,1.1,1.11,0.856,0.906,1.05,0.879,0.133,0.137,0.124,0.133,0.126
RERF-LC-KJ,0.926,1.01,1.05,0.965,1.11,1.03,0.984,0.919,0.969,0.904,0.739,1.02,0.889,0.498,0.517,0.443,0.432,0.541
SK-LU-1,0.943,1,1.07,0.928,0.939,1.09,1.08,1.05,1.08,0.945,1.14,0.952,0.646,0.926,1.01,1.05,0.994,0.911
SK-MES-1,0.944,1.06,1.15,1,0.946,0.987,1.04,1.05,1.05,0.981,0.949,1.32,1.05,0.91,0.981,0.961,0.924,0.985
SW 1573,0.961,0.955,1.06,0.897,0.948,1.02,1.07,1.2,1.13,0.788,0.716,0.857,0.693,0.831,0.899,0.792,0.857,0.861
UMC-11,0.914,0.945,1.07,0.99,0.828,1.01,1.01,1.03,1.11,1.07,1.04,1.01,0.951,0.743,0.908,0.871,0.701,0.844
